BindingDB's records for doi:10.1016/j.ejmech.2017.08.046 (University of Torino, 2017)

target: Prostaglandin G/H synthase 2 (Homo sapiens) (UniProt P35354); assay: Inhibition of human COX2 assessed as reduction in PGF2alpha production by ELISA
Sequence (P35354 whole entry, looked up): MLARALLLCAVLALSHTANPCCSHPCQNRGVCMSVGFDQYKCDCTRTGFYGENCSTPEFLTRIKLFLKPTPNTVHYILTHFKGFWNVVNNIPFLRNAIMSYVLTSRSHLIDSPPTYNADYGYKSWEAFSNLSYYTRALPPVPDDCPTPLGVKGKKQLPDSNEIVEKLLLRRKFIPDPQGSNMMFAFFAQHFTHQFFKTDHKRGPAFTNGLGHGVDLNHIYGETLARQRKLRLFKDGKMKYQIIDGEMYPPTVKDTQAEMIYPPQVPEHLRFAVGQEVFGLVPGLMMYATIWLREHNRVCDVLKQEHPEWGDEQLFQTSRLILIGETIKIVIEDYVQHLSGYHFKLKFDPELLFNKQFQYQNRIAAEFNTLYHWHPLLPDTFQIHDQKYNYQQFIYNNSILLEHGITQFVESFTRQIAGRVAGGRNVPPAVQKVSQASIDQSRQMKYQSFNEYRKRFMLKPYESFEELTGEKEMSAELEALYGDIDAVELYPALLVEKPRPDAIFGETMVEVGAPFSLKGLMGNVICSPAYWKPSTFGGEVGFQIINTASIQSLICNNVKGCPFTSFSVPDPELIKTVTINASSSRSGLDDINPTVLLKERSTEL

IC50, > 100 µM:
COc1ccc(Cn2nnc(O)c2C(=O)Nc2cccc(C(F)(F)F)c2)cc1
O=C(Nc1cccc(C(F)(F)F)c1)c1c(O)nnn1CC1CC1
O=C(Nc1cccc(C(F)(F)F)c1)c1c(O)nnn1Cc1ccccc1
